Test results reported in patent US20190323025A1, “COMPOSITIONS AND METHODS FOR DELIVERY OF MOLECULES TO PLANTS” (BLOOMSBURG UNIVERSITY OF PENNSYLVANIA, priority 2018, published 2019).

Columns and labels:
[1] = test system: AvsYS1 avenic acid/Fe+3 transporter; experiment: Yeast growth assay in liquid medium with phytosiderophore/Fe+3 complex as the only available iron, strain DEY1453 transformed with pJKD1 (pYES2/AvsYS1) or pYES2; format: cell-based, Avena sativa; conditions: for growth of yeast with transporter (DEY1453:pJKD1, 53K): S. cerevisiae DEY1453:pJKD1 (pYES2/AvsYS1), YNB minimal medium pH 7.5, BPDS, iron only as Fe+3 complexed with the substance
Excerpt: AvsYS1 (Genbank FJ477297.1) was isolated using 5′RACE from the roots of iron starved oats (Avena sativa). Primers were designed by comparing one functionally confirmed phytosiderophore/Fe^+3 transporter (HvYS1) and other iron transport proteins. After obtaining a full-length clone, we subcloned the gene (AvsYS1) into a yeast galactose inducible expression vector (pYES2). The resultant plasmid was designated pJKD1. We obtained a yeast strain that lacks the ability to take up ferric iron and transformed it with pYES2 and pJKD1. The transformants were grown under identical conditions in which the only iron available was in the Fe^+3/avenic acid complex.
We engineered the AvsYS1 gene into a galactose inducible expression systems vector (pYES2). Our first major result was the functional confirmation of the AvsYS1 gene. We transformed pYES2 and pJKD1 (pYES2/AvsYS1) into a strain of S. cerevisiae (DEY1453) that lacks the ability to take up Fe^3+. In the process, we developed a new assay based on growth in liquid medium. The advantage of this assay over more traditional assays used in yeast-based PS/Fe^+3 assays is that it is quantifiable. Other assays (e.g., Murata, 2006) grow yeast on a solid plate, and qualitative growth of colonies is used. With our assay, we can generate numerical data based on the density as measured by the absorbance at 600 nm. […] Further detail is provided below.
53Y=DEY1453:pYES2 (no transporter) 53K=DEY1453:pJKD1 (pYES2/AvsYS1 [transporter]) DOB—Complete medium, supplemented w/FeSo4, ampicillin 50 YNB-minimal medium, pH7.5, BPDS (ferrous chelator), ampicillin,
Protocols included: 53Y and 53K in DOB+FeSO4, 53Y and 53K in YNB supplemented with Avenic acid; 53Y and 53K supplemented with BPA-1-068B; 53Y and 53K in YNB w/ no supplements; uninoculated YNB; uninoculated DOB.
53Y=DEY1453:pYES2 (no transporter) 53K=DEY1453:pJKD1 (pYES2/AvsYS1 [transporter]) DOB—Complete medium, supplemented w/FeSo4, ampicillin 50 YNB-minimal medium, pH7.5, BPDS (ferrous chelator), ampicillin, Ø=no supplementation
Protocols included: 53Y and 53K, supplemented with Avenic acid, 53Y and 53K supplemented with BPA-1-068B, 53Y and 53K in YNB w/ no supplements.
3Y=DEY1453:pYES2 (no transporter) 3K=DEY1453:pJKD1 (pYES2/AvsYS1 [transporter]) Strains grown in YNB/Gal, pH 7.5, Amp50, Avenic acid: Fe^+3, 5:1
Another interesting observation was made in relation to growth of the DEY1453:pJKD1 using one of the analogs complexed with Fe^+3. […] This was a very significant result because it provided strong (though not dispositive) evidence in support of our Trojan Horse delivery technology.

[2] = test system: Micro-Tom tomatoes, AvsYS1 transformants (MT*) and untransformed (MT); experiment: Hydroponic growth of Micro-Tom tomatoes under iron limiting conditions with iron provided as FeCl3/avenic acid; format: in vivo, tomato; conditions: Hoagland's solution (-Fe), pH 7.4, 10 μM FeCl3 complexed with 15 μM avenic acid
Excerpt: RNA was isolated from […]. A cDNA (AvsYSl) was isolated and its functionality confirmed as a phytosiderophore/Fe^+3 transporter that mitigates the effects of Iron Deficiency Chlorosis in transgenic Micro-Tom™ tomatoes when the nutrient medium is supplemented with the oat phytosiderophore, avenic acid. […] Final confirmation of the AvsYS1 transporter's functionality was obtained by comparing Micro-Tom™: AvsYS1 (MT*) transformants with non-transgenic Micro-Tom™ grown hydroponically under iron limiting conditions. (See, e.g., Shikata et al. (2016) “Micro-Tom tomato as an alternative plant model system: mutant collection and efficient transformation” Methods Mol. Biol. 1363:47-55.) Samples were grown in Hoagland's solution (—Fe) at pH 7.4. Iron was provided as 10 μM FeCl3/15 μM avenic acid. Tomatoes normally optimally grow at pH 5.6-6.8. Sample 3 was labelled MT*. This was a Micro-Tom™ variety was transformed with Fe+3/avenic acid transporter isolated from roots of iron starved oats. Sample 4 was an untransformed Micro-Tom™ (MT) plant.
MT* tomatoes grew robustly in Hoagland's solution at a pH of 7.4 supplemented with iron was provided at 10 μM FeCl3 complexed with 15 μM avenic acid.

Row | Structure (SMILES) | growth of yeast with transporter (DEY1453:pJKD1, 53K) [1] | growth of yeast without transporter (DEY1453:pYES2, 53Y) ([1]; S. cerevisiae DEY1453:pYES2 (no transporter), iron only as Fe+3/avenic acid complex) | growth of MT* (AvsYS1 transformed) tomatoes ([2]; 16 days) | iron deficiency chlorosis in untransformed (MT) tomatoes ([2]; after 16 days) | growth of yeast with transporter (DEY1453:pJKD1, 53K) ([1]; listed as drawing 7) | growth rate of DEY1453:pJKD1 ([1]; ferric iron supplied with the analog, compared to DEY1453:pYES2 controls) | uptake by the avenic acid transporter ([1]; yeast, in the presence of iron)
1 | O=C(O)[C@H](CCO)NCC[C@H](NCC[C@H](O)C(=O)O)C(=O)O [avenic acid, Avenic Acid] | able to grow vigorously | could not | grew robustly | Iron deficiency chlorosis was observed in new leaves |  |  | 
2 | O=C(CC(NCCC(NCC[C@H](O)C(=O)O)C(=O)O)C(=O)O)OCc1ccccc1 (stereo partly drawn) [BPA-1-068B] | able to grow |  |  |  | impressive | slower, but undeniably robust | able to be taken up
3 | O=C(O)C(CO)NCCC(NCC[C@H](O)C(=O)O)C(=O)O (stereo partly drawn) [MGS-2-128BF] | supported growth as well as avenic acid |  |  |  |  |  | 
